We go through 68 compounds from PubChem BioAssay AID493148 (Sanford-Burnham Center for Chemical Genomics, 2011).

Calls of active or inactive are those of the source. No rule for the calls is given here.

The assay deals with Alkaline phosphatase, tissue-nonspecific isozyme (Homo sapiens) (UniProt P05186). Kind of assay: inhibition of tissue-nonspecific alkaline phosphatase – biochemical, selectivity assay for mouse IAP inhibitor project, SAR follow-up (AID 493148). To be noted: purified enzyme, CDP-Star luminescence, 30 min.
Sequence of Alkaline phosphatase, tissue-nonspecific isozyme (Homo sapiens) (P05186 whole entry, looked up): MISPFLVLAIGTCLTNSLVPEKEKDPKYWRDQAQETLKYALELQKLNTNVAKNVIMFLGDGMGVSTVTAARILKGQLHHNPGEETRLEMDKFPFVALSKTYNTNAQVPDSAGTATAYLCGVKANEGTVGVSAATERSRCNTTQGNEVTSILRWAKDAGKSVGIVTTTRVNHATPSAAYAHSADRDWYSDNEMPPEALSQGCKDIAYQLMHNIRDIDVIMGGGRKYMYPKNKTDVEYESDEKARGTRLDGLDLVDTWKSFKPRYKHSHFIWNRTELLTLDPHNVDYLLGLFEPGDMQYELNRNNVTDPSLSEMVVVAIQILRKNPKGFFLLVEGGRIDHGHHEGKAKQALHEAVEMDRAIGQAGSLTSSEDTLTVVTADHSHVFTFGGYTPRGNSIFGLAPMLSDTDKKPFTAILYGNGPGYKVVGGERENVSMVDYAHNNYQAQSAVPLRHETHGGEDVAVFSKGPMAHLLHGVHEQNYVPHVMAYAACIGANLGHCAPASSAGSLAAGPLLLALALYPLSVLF

As to `O=C(Nc1cccc(-c2cccc(Cl)c2)c1)C1CCN(C2CCC2)CC1`, the IC50 is > 100 µM (inactive).
`CN1CCC(=NNC(=O)c2cc(O)c(O)c(O)c2)CC1`: the IC50 is > 100 µM (inactive).
Take `O=[N+]([O-])c1ccc(NC(=S)NCCC(c2ccccc2)c2ccccc2)cc1`: the IC50 was > 100 µM (inactive).
Consider `COc1cccc(-c2cccc(NC(=O)C3CCN(Cc4ccc(C)o4)CC3)c2)c1`, for which the IC50 is > 100 µM (inactive).
With `CCn1cc(CN2CCC(C(=O)Nc3cccc(-c4cccc(Cl)c4)c3)CC2)cn1`, the IC50 was > 100 µM (inactive).
In the case of `CC(C)c1ccccc1NC(=S)NCCC(c1ccccc1)c1ccccc1` it was > 100 µM (inactive); in that of `Cc1ccc(NC(=O)CCNS(=O)(=O)c2ccc3[nH]c(=O)oc3c2)cc1C`, > 100 µM (inactive); in that of `CC(C)n1cc(CN2CCC(C(=O)Nc3cccc(-c4cccc(Cl)c4)c3)CC2)cn1`, > 100 µM (inactive).
In the case of `CCc1ccccc1Nc1nc(-c2ccc(O)c(O)c2)cs1` it was 11.4 µM.
In the case of `Cc1nn(C(C)C)c(C)c1CN1CCC(C(=O)Nc2cccc(-c3cccc(F)c3)c2)CC1` it was > 100 µM (inactive); in that of `Cn1cc(CN2CCC(C(=O)Nc3cccc(-c4cccc(F)c4)c3)CC2)cn1`, > 100 µM (inactive); in that of `CCCn1ncc(CN2CCC(C(=O)Nc3cccc(-c4cccc(F)c4)c3)CC2)c1C`, > 100 µM (inactive).
For `S=C(NCCC(c1ccccc1)c1ccccc1)Nc1ccccc1`, the IC50 is > 100 µM (inactive).
Regarding `Fc1ccc(NC(=S)NCCC(c2ccccc2)c2ccccc2)cc1Cl`, the IC50 is > 100 µM (inactive).
Consider `O=C(CN1C(=O)/C(=C\c2ccco2)SC1=S)Nc1ccccc1C(=O)O`, for which the IC50 was > 100 µM (inactive).
`COc1cccc(NC(=S)NCCC(c2ccccc2)c2ccccc2)c1`: the IC50 is > 100 µM (inactive).
To `FC(F)(F)c1cccc(NC(=S)NCCC(c2ccccc2)c2ccccc2)c1` belongs > 100 µM (inactive); to `Cc1cc(=O)oc2cc(NC(=S)NCCC(c3ccccc3)c3ccccc3)ccc12`, > 100 µM (inactive).
In the case of `O=C(Nc1cccc(-c2cccc(Cl)c2)c1)C1CCN(Cc2ccc(CO)o2)CC1` it was > 100 µM (inactive); in that of `O=S(=O)(Nc1ncccn1)c1ccc(NC(=S)NCCC(c2ccccc2)c2ccccc2)cc1`, > 100 µM (inactive); in that of `S=C(NCCC(c1ccccc1)c1ccccc1)Nc1ccc(Nc2ccccc2)cc1`, > 100 µM (inactive).
With `S=C(NCCC(c1ccccc1)c1ccccc1)Nc1ccc(Cl)c(Cl)c1`, the IC50 was > 100 µM (inactive).
With `NS(=O)(=O)c1ccc(NC(=S)NCCC(c2ccccc2)c2ccccc2)cc1`, the IC50 was > 100 µM (inactive).
To `O=C(Nc1cccc(-c2cccc(F)c2)c1)C1CCN(Cc2ccc(CO)o2)CC1` belongs > 100 µM (inactive).
Take `COc1ccc(C(=O)CSc2n[nH]c(-c3ccccc3)n2)cc1OC`: the half-maximal inhibitory concentration (IC50) was 34.4 µM.
For `CCN1CCN(S(=O)(=O)c2ccc3[nH]c(=O)oc3c2)CC1`, the IC50 was > 100 µM (inactive).
For `COc1cc(NC(=S)NCCC(c2ccccc2)c2ccccc2)cc(OC)c1`, the IC50 was > 100 µM (inactive).
With `CC(C)n1cc(CN2CCC(C(=O)Nc3cccc(-c4cccc(F)c4)c3)CC2)cn1`, the IC50 is > 100 µM (inactive).
For the compound `Cc1ccc(C)c(NC(=S)NCCC(c2ccccc2)c2ccccc2)c1`, the IC50 is > 100 µM (inactive).
As to `Fc1ccccc1NC(=S)NCCC(c1ccccc1)c1ccccc1`, the IC50 was > 100 µM (inactive).
Take `CCn1nc(C)c(CN2CCC(C(=O)Nc3cccc(-c4cccc(Cl)c4)c3)CC2)c1C`: the IC50 was > 100 µM (inactive).
Consider `S=C(NCCC(c1ccccc1)c1ccccc1)Nc1cccc(Cl)c1`, for which the IC50 was > 100 µM (inactive).
To `CCn1cc(CN2CCC(C(=O)Nc3cccc(-c4cccc(F)c4)c3)CC2)cn1` belongs > 100 µM (inactive).
Consider `Cc1nn(C)c(Cl)c1CN1CCC(C(=O)Nc2cccc(-c3cccc(F)c3)c2)CC1`, for which the IC50 was > 100 µM (inactive).
For the compound `Cc1cc(C)cc(NC(=S)NCCC(c2ccccc2)c2ccccc2)c1`, the IC50 is > 100 µM (inactive).
To `Cc1c(Cl)cccc1Nc1nc(-c2ccc(O)c(O)c2)cs1` belongs > 100 µM (inactive); to `O=C(CN1C(=O)/C(=C/c2ccco2)SC1=S)Nc1ccc(C(=O)O)cc1`, > 100 µM (inactive); to `Cc1cccc(NC(=S)NCCC(c2ccccc2)c2ccccc2)c1C`, > 100 µM (inactive).
To `Cc1ccc(NC(=S)NCCC(c2ccccc2)c2ccccc2)cc1` belongs > 100 µM (inactive).
To `CCn1cc(CN2CCC(C(=O)Nc3cccc(-c4cccc(OC)c4)c3)CC2)cn1` belongs > 100 µM (inactive); to `CCn1nc(C)c(CN2CCC(C(=O)Nc3cccc(-c4cccc(F)c4)c3)CC2)c1C`, > 100 µM (inactive).
Turning to `C=CCn1cc(CN2CCC(C(=O)Nc3cccc(-c4cccc(F)c4)c3)CC2)c(C)n1`, the IC50 was > 100 µM (inactive).
In the case of `Cc1ccc(CN2CCC(C(=O)Nc3cccc(-c4cccc(F)c4)c3)CC2)o1` it was > 100 µM (inactive).
To `O=C(CN1C(=O)/C(=C/c2ccco2)SC1=S)Nc1cccc(C(=O)O)c1` belongs > 100 µM (inactive); to `CC1(c2ccccc2)CC(C)(C)N(C(=S)Nc2ccccc2)c2ccccc21` (stereo not drawn), > 100 µM (inactive); to `CC(C)N1CCC(=NNC(=O)c2cc(O)c(O)c(O)c2)CC1`, > 100 µM (inactive).
On to `COc1ccc(Cl)cc1NC(=S)NCCC(c1ccccc1)c1ccccc1`, for which the IC50 was > 100 µM (inactive).
In the case of `C=CCn1cc(CN2CCC(C(=O)Nc3cccc(-c4cccc(Cl)c4)c3)CC2)c(C)n1` it was > 100 µM (inactive); in that of `COc1cccc(-c2cccc(NC(=O)C3CCN(Cc4ccc(CO)o4)CC3)c2)c1`, > 100 µM (inactive); in that of `Cc1c(Cl)cccc1NC(=S)NCCC(c1ccccc1)c1ccccc1`, > 100 µM (inactive).
In the case of `S=C(NCCC(c1ccccc1)c1ccccc1)Nc1ccc(Cl)cc1` it was > 100 µM (inactive).
As to `S=C(NCCC(c1ccccc1)c1ccccc1)Nc1ccc(Cl)cc1Cl`, the IC50 is > 100 µM (inactive).
In the case of `CCn1c(SCC(=O)c2ccc(O)c(O)c2)nnc1-c1ccccc1OC` it was > 100 µM (inactive); in that of `CCOC(=O)c1ccc(NC(=S)NCCC(c2ccccc2)c2ccccc2)cc1`, > 100 µM (inactive); in that of `CCn1ncc(CN2CCC(C(=O)Nc3cccc(-c4cccc(F)c4)c3)CC2)c1C`, > 100 µM (inactive).
Regarding `CN(C)S(=O)(=O)c1cccc(NC(=S)NCCC(c2ccccc2)c2ccccc2)c1`, the IC50 was > 100 µM (inactive).
Turning to `COCc1ccc(CN2CCC(C(=O)Nc3cccc(-c4cccc(Cl)c4)c3)CC2)o1`, the IC50 was > 100 µM (inactive).
As for `COc1ccc(Cl)cc1Nc1nc(-c2ccc(O)c(O)c2)cs1`, the IC50 is > 100 µM (inactive).
On to `Oc1ccc(-c2csc(Nc3cccc4ccccc34)n2)cc1O`, for which the IC50 is 6.4 µM.
Consider `CCn1cc(CN2CCC(C(=O)Nc3cccc(-c4cccc(OC)c4)c3)CC2)c(C)n1`, for which the IC50 is > 100 µM (inactive).
To `COc1ccc(NC(=S)NCCC(c2ccccc2)c2ccccc2)cc1` belongs > 100 µM (inactive).
To `Cc1cc(Cl)ccc1NC(=S)NCCC(c1ccccc1)c1ccccc1` belongs > 100 µM (inactive); to `Cc1ccc(NC(=S)NCCC(c2ccccc2)c2ccccc2)cc1C`, > 100 µM (inactive).
Take `COC(=O)c1cc(NC(=S)NCCC(c2ccccc2)c2ccccc2)cc(C(=O)OC)c1`: the IC50 is > 100 µM (inactive).
To `Cc1cc(NC(=O)CCNS(=O)(=O)c2ccc3[nH]c(=O)oc3c2)ccc1Br` belongs > 100 µM (inactive).
In the case of `Cn1cc(CN2CCC(C(=O)Nc3cccc(-c4cccc(Cl)c4)c3)CC2)cn1` it was > 100 µM (inactive).
In the case of `COc1cc([N+](=O)[O-])ccc1NC(=S)NCCC(c1ccccc1)c1ccccc1` it was > 100 µM (inactive); in that of `Cc1c(CN2CCC(C(=O)Nc3cccc(-c4cccc(Cl)c4)c3)CC2)cnn1C`, > 100 µM (inactive).
